Measured values published in patent US20230060873A1, “COMPOUNDS AND METHODS FOR FORMING ION CHANNELS IN BIOLOGICAL MEMBRANES” (Washington University, priority 2021, published 2023).
≈ marks a conversion by molar mass, not a printed value.

Columns and labels:
[1] = Single-channel patch clamp recordings, inside-out, on giant multilamellar vesicles; format: biochemical; conditions: 10 μM; for single channel conductance with different ions: Na+ and NMDG+ compared with K+; for single channel activity with different ions: NaCl or NMDG-Cl; for NPO / Translocation rate: 100 mV
Protocol: The liposome preparation was based on protocols employed by Jiang et al., Activation of the archaeal ion channel MthK is exquisitely regulated by temperature, Elife 2020, 9, to reconstitute bacterial ion channels in proteoliposomes (giant multilamellar vesicles; GMLV). The method is adapted to produce plain liposomes. A total of 25 mg of asolectin from soybean (Avanti) was dissolved in 1 mL of chloroform, dried under argon, and kept overnight under vacuum. The dried lipids were resuspended using bath sonication in a resuspension solution (250 mM KCl, 30 mM HEPES, 0.1 mM CaCl2, pH adjusted at 7.6 with KOH) to a final concentration of 15 mg/mL and stored in 30 μL aliquots at −80° C. Aliquots were thawed and placed on a clean glass slide and dried in a desiccator under vacuum at room temperature. The lipids were then rehydrated with 50 μL resuspension solution for more than 2 h to yield the GMLVs.
Direct detection of electrophysiological activity in biological membranes is the gold standard for any putative ion channel. The 6-O-10 and 6-A-10 compounds were tested for ion channel activity by using the patch clamp technique in the inside-out configuration on giant multilamellar vesicles (GMLV) of asolectin.
Single-channel recordings were obtained by patch-clamping GMLV. After seal formation, patches were excised to obtain the inside-out configuration, and then the pipette solution and the bath solution were assumed to be “external” and “internal” solutions, respectively. Pipettes of borosilicate capillary glass 2-000-100 (Drummond Scientific Company) were pulled in a horizontal pipette puller P-97 (Sutter Instrument). Pipette resistance was 5-10 MΩ in any of the solutions tested. Data were acquired with an Axopatch 200A (Axon Instruments) amplifier. Current signals were sampled with a 16-bit A/D converter Axon Digi-data 1550B (Axon Instruments) at a sampling rate of 100 kHz and low-pass filtered at 10 kHz. Data was acquired using Clampex 10.7 (Molecular Devices) acquisition software and analysed with Clampfit 10.7 software (Axon Instruments) and Origin. The temperature in the room was approximately 21° C.
For gap-free experiments, symmetrical (same solution in pipette and bath) KCl solution (200 mM KCl, 30 mM HEPES, pH adjusted to 7.4 with KOH), NaCl solution (200 mM NaCl, 30 mM HEPES, pH adjusted to 7.4 with NaOH) or NMDG-Cl solution (200 mM NMDG, 30 mM HEPES, pH adjusted to 7.4 with HCl) were used for both the internal and external solutions. All the traces were recorded at 100 mV for 5 minutes.
FIGS. 12-14 show single channel activity elicited by 10 μM 6-O-10 in the presence of symmetrical KCl, NaCl and NMDG-Cl solutions, respectively. FIGS. 15-17 show single channel activity elicited by 10 μM 6-A-10 in the presence of symmetrical KCl, NaCl and NMDG-Cl solutions, respectively. Histograms for a total recording time of 900 s are included below every record.
Ion channel activity was measured in the presence of symmetrical 200 mM KCl, NaCl or NMDG-Cl at a concentration of 10 μM for each compound. Three different records of 300 s each were analyzed for every condition shown in (FIGS. 12-17).
To estimate the relative permeabilities of various ions, the product of number of channels (N) and open probability (Po) and the conductance from the amplitude histograms must be taken into consideration (Table 1). Unlike measurements from single ion channels, the present analysis is not constrained to recordings from patches that contain single functional channels. Thus, the possibility that the supramolecular assembly of synthetic channels is dynamic, and that new channels form during recordings with different oligomerization states cannot be ruled out. The only parameter that can be controlled is the concentration of the compounds in solution. All measurements reported here were obtained at 10 μM solution concentration. […]

HEK293T cells = format: cell-based; conditions: human, 48 h
Protocol: The cyto-toxicity was determined by measuring the minimum inhibitory concentrations (MIC) for this series of dialkylated lariat ethers in the Gram-negative bacteria Escherichia coli, the Gram-positive bacteria Bacillus subtilis, and human embryonic kidney (HEK293T) cells.
On HEK293T cells. Human embryonic kidneys (HEK293T) cells (Thermofisher Scientific) were grown attached in cell culture dishes, detached by trypsin treatment and diluted in Dulbecco's Modified Eagle's Medium (DMEM) medium supplemented with phenol red indicator (Thermofisher scientific) until the density reached 100,000 viable cells/mL. An aliquot of 1 mL of this cell suspension was added to each well of a 24-wells culture plate. After 2 h, when the cells were already attached, a custom amount of 400, 100, 10 or 5 mM TFE solution of the dialkylated diaza(18-crown-6) ether compounds were added until final concentration of 400, 200, 100, 50, 20, 15, 10, 8, 6, 5, 4, 3, 2 or 1 μM were reached. The final TFE concentration never was over 0.1% v/v. Negative controls in the presence of TFE 0.1% v/v or the absence of any treatment were done for each plate. The plates were cultured at 37° C. The MIC was determined as the lowest compound concentration that killed all the cells after 48 h, as judged by trypan blue dye. […]

Structure (SMILES)	efficiency of K+ transport compared to 6-O-10 [1]	single channel conductance with different ions [1]	single channel activity with different ions ([1]; symmetrical 200 mM KCl)	NPO ([1]; symmetrical 200 mM KCl)	Translocation rate ([1]; symmetrical 200 mM KCl)	NPO ([1]; symmetrical 200 mM NMDG-Cl)	Translocation rate ([1]; symmetrical 200 mM NMDG-Cl)	NPO ([1]; symmetrical 200 mM NaCl)	Translocation rate ([1]; symmetrical 200 mM NaCl)	efficiency of K+ permeation relative to NMDG+ ([1]; from translocation rates) [fold]	efficiency of K+ permeation relative to Na+ ([1]; from translocation rates) [fold]	minimum inhibitory concentration (MIC) (HEK293T cells) [µM]
CCCCCCCCCCc1ccc2c(c1)OCCOCCOCCOCCOCCO2 [Compound 6-A-10, 18-decyl-2,3,5,6,8,9,11,12,14,15-decahydrobenzo[b][1,4,7,10,13,16]hexaoxacyclooctadecine]	an order of magnitude less efficient	very similar with the different ions	does not vary significantly	0.18 ± 0.02	3.2 ± 0.3 10^6/sec	0.19 ± 0.12	5.0 ± 1.9 10^6/sec	0.16 ± 0.02	4.5 ± 0.7 10^6/sec			
CCCCCCCCCC(=O)c1ccc2c(c1)OCCOCCOCCOCCOCCO2 [Compound 6-O-10, 1-(2,3,5,6,8,9,11,12,14,15-decahydrobenzo[b][1,4,7,10,13,16]hexaoxacyclooctadecin-18-yl)decan-1-one]		only half that observed in the presence of K^+	highest in the presence of K^+ and Na^+ as compared to NMDG^+	0.58 ± 0.16	43.4 ± 5.8 10^6/sec	0.25 ± 0.13	7.1 ± 3.4 10^6/sec	0.56 ± 0.10	11.3 ± 1.1 10^6/sec	7	3.5	
CCCCCCCCCCN1CCOCCOCCN(CCCCCCCCCC)CCOCCOCC1 [LEC10, Didecyl diaza(18-crown-6)]												6 (≈ 3.26 µg/mL)
